In paper PMC12040169 (PLOS Biology, 2025):

Assay: in vitro
Conditions: human, hela cells, % viability

| SMILES | viability at 28.5 h, 10 µM |
| --- | --- |
| COc1ccc([C@]23CC[C@H](NC(=O)c4ccc(C(F)(F)F)c(F)c4)C[C@H]2CN(C)C3)cc1OC [CBK082743T] | 110% |
| O=C(O)C[C@]1(C(=O)NC2CCCCCC2)CC(/C=C/c2ccccc2)=NO1 [CBK286732] | 75.9% |
| O=C(Nc1cccc2[nH]ccc12)c1cccc(F)c1Cl [CBK159638] | 76.4% |
| O=C(O)c1ccc(CNC2CC(=O)N(c3ccc(F)cc3)C2=O)cc1 (stereo not shown) [CBK286727] | 95.3% |
| CCCOc1ccc(OC(=O)COc2ccccc2)cc1 [CBK160853] | 93.3% |
| O=C(CSc1nc(O)cc(=O)n1-c1ccccc1)c1ccccc1 [CBK261745] | 103% |
| O=C(O)CSCc1ccc(C(=O)O)o1 [CBK263267] | 107% |
| CC1(C)C(=O)Nc2ccccc2N1C(=O)COc1ncnc2sc3c(c12)CCC3 [CBK297530] | 89.9% |
| COc1ccc(CN2CCNC(=O)C2CC(=O)O)c(OC)c1 (stereo not shown) [CBK270072] | 112% |
| CCCC(=O)c1ccc2c(c1)CC(N(CCC)CCC)C2 (stereo not shown) [CBK023971C] | 95.1% |
| Cc1ccc2nc(/C(C#N)=C/c3ccc(-c4ccc(S(N)(=O)=O)cc4)o3)[nH]c2c1 [CBK266386] | 94% |
| COc1cncc(-c2cc(N3CCC(N4CCCCC4)CC3)ncn2)c1 [CBK090964] | 90.3% |
| O=C(NC(C(=O)N/N=C/c1ccc(O)cc1)c1n[nH]c(=O)c2ccccc12)c1ccccc1 (stereo not shown) [CBK262839] | 116% |
| COc1ccc(-c2ccc(OC)cc2C(=O)Nc2ccc3c(c2)N(C)C(=O)CO3)cc1 [CBK285650] | 92% |
| COc1ccc(OCC(=O)Nc2cccc(-c3nnc4c5ccccc5c(C)nn34)c2)cc1 [CBK266743] | 105% |
| O=C1CCc2cc(S(=O)(=O)Nc3cccc(-c4ccc(F)cc4)c3)ccc2N1 [CBK286371] | 102% |
| CC(=O)Nc1c(-c2ccc(C)cc2)c(=O)c2ccccc2n1C [CBK287775] | 88% |

| SMILES | viability at 28.5 h, 10 µM |
| --- | --- |
| O=C(NCc1ccccc1)C1CCCN(c2ncnc3[nH]cnc23)C1 (stereo not shown) [CBK287916] | 91.4% |
| COC(=O)CCc1ccc(S(=O)(=O)N2CCCN(Cc3cccc(Cl)c3Cl)CC2)cc1 [CBK062988] | 93.5% |
| O=c1oc(-c2cccc(F)c2)nc2ccc(Cc3ccc4nc(-c5cccc(F)c5)oc(=O)c4c3)cc12 [CBK262856] | 120% |
| CCCn1c(=S)[nH]c2cc(C(=O)NCCc3ccc(Cl)cc3)ccc2c1=O [CBK294445] | 88.6% |
| COc1ccc2c(c1)C1(CC(=O)N(Cc3cccnc3)C1=O)C(=O)N2C (stereo not shown) [CBK075236] | 103% |
| Nc1cc2cccnc2nc1-c1ccc(OC(F)(F)F)cc1 [CBK067616] | 93.8% |
| CCCn1c(SCC(=O)NCCN2C(=O)CSC2=O)n[nH]c1=O [CBK296976] | 89.2% |
| O=C(CSc1nc2ccccc2[nH]1)Nc1ccc(OC(F)(F)F)cc1 [CBK269711] | 104% |
| CCN(Cc1ccco1)C(=O)Cn1c(=O)n(C)c2ncccc21 [CBK282390] | 99.3% |
| O=C(O)C1CC(=O)N(Cc2ccccc2)C1c1ccccc1 (stereo not shown) [CBK286876] | 89.1% |
| CCOC(=O)CC1C(=O)NCCN1C/C=C\c1ccccc1OC (stereo not shown) [CBK269791] | 94.3% |
| Cc1sc2ncn(CC(=O)NCc3nnc4n3CCC4)c(=O)c2c1C [CBK305654] | 93.8% |
| O=c1[nH]c(=O)c2cc(S(=O)(=O)NC3(c4ccccc4)CCCC3)ccc2[nH]1 [CBK286378] | 110% |
| CCC(NC(=O)Nc1cc(N2CCOCC2)ccc1Cl)c1nc(C)no1 (stereo not shown) [CBK306526] | 87.9% |
| Cc1cccc(/N=C(\N)Nc2nc(=O)cc(C)[nH]2)c1 [CBK288144] | 93.1% |
| FC(F)(F)c1ccc(Oc2ccc(-c3noc(-c4ccccn4)n3)cc2)nc1 [CBK270152] | 90.1% |
| Cn1cc(CC(=O)N2CCCc3ccccc32)c2ccccc21 [CBK200349] | 64.8% |
